This is an account of results in PubChem BioAssay (NCI).

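How tested: cells in 96-well plates exposed to compound for 48 hours at five concentrations. The concentration for full growth arrest is given as TGI.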 Where a SMILES comes first, the peptide text is derived from it. [ ]: non-standard residue; d: D form. The star is where a group is joined. ξ: configuration not given here. NMeY = CN[C@@H](Cc1ccc(O)cc1)C(=O)O; Cbz = O=C(OCc1ccccc1)*; ξA = CC(N)C(=O)O

As a reminder, the TGI is the concentration at which net growth stops.

What all share (assay): DTP human tumour cell line panel, 48 h
The subject of test [1] is SNB-75 CNS.
For test [2], the system named is U251 CNS.
Test [3] has as its system A498 renal.
Test [4] deals with UACC-257 melanoma.
Test [5] relates to RPMI-8226 leukemia.
Test [6] has as its system A549 NSCLC.
In test [7] the test system is SF-268 CNS.
In test [8] the test system is OVCAR-3 ovarian.
Test [9] deals with UO-31 renal.
Test [10] has as its system OVCAR-5 ovarian.
The subject of test [11] is ACHN renal.
Test [12] has as its system NCI/ADR-RES ovarian.
Test [13] has as its system PC-3 prostate.
In test [14] the test system is KM12 colon.
Test [15] concerns EKVX NSCLC.
Test [16] has as its system MOLT-4 leukemia.
The test system of test [17] is K-562 leukemia.
Test [18] deals with LOX IMVI melanoma.

With `COC(C)=NCCC1=CCCCC1`, the TGI in test [1], in test [2], in [3], in test [4], in [5] and in test [6] was more than 100 µM in each case. The TGI in [7], in test [8], in test [9], in test [10], in test [11] and in test [12] was more than 100 µM each time. Further, the TGI in [13], in test [14], in test [15], in test [16] and in test [17] was more than 100 µM throughout.

Take `O=c1[nH][nH]c(=O)n1Cc1ccccc1`: the TGI in test [1], in [2], in test [3], in test [4], in [18] and in [5] was more than 100 µM each time. For the same compound, the TGI in test [6], in test [7], in test [8], in test [9], in test [10] and in [12] was more than 100 µM throughout. The concentration for total growth inhibition (TGI) in test [13], in [14], in test [15], in [16] and in [17] was more than 100 µM in each case.

Consider `COc1ccc(C[C@@H](C(=O)N[C@@H](C)C(N)=O)N(C)C(=O)[C@@H]2CCCN2C(=O)[C@H](CC(C)C)NC(=O)C(C)NC(=O)OCc2ccccc2)cc1` (stereo partly drawn) (Cbz-[ξA]LP[NMeY](Me)A-NH2), for which the total growth inhibition concentration (TGI) in test [1], in test [2], in test [3], in test [18], in [5] and in test [6] was more than 100 µM each time. Further, the TGI in [7], in test [8], in test [9], in [10], in test [11] and in test [12] was more than 100 µM in each case. For the same compound, the total growth inhibition concentration (TGI) in test [13], in test [14], in test [15], in test [16] and in test [17] was more than 100 µM throughout.

Consider `COc1ccc2nc3cccc([N+](=O)[O-])c3c(NCCC(=O)O)c2c1`, for which the TGI in [1], in test [2], in test [3], in test [4], in [18] and in test [5] was more than 10 µM in each case. In addition, the concentration for total growth inhibition (TGI) in test [6], in [7], in [8], in [10], in [11] and in [12] was more than 10 µM throughout. In addition, the TGI in [13], in test [14], in [15], in test [16] and in test [17] was more than 10 µM each time.

As to `CCOC(=O)/C(=C\c1c[nH]c2ccccc12)P(=O)(OCC)OCC`, the TGI was 75.6 µM in test [1]; more than 100 µM in test [2]; 76.1 µM in test [3]; more than 100 µM in test [4]; 40.3 µM in [18]; 76.8 µM in test [5]. The TGI in [6] is more than 100 µM; in [7] it was more than 100 µM; in [8], 59.9 µM; in test [10], 87.9 µM; in test [11], more than 100 µM; in test [12], more than 100 µM. The TGI was 66.6 µM in test [13]; more than 100 µM in [14]; more than 100 µM in test [15]; more than 100 µM in test [16]; more than 100 µM in [17].

For `O=C1c2ccccc2C(=O)c2c1oc1cc(O)c(Cl)cc21`, the TGI in test [1] came to 10.4 µM; in test [2] it was 22.3 µM; in test [3], 34 µM; in test [4], 7.78 µM; in [18] it was 7.88 µM; in [5], 55.3 µM. Also, the TGI in test [6] came to 9.46 µM; in test [7], 31.9 µM; in [8], 8.52 µM; in test [9], 26.6 µM; in test [10], 23.9 µM; in test [11] it was 17 µM. Further, the concentration for total growth inhibition (TGI) was 45.4 µM in test [12]; 29.6 µM in test [13]; 19.4 µM in test [14]; 29.6 µM in test [15]; more than 62.5 µM in [16]; 43.9 µM in [17].

For `C=CC(C)(C)NC(C(=O)N1CCC[C@H]1c1nc(-c2nc(C(=O)OCC=C(C)C)c(C)o2)c(C)o1)C(C)C` (stereo partly drawn), the TGI in test [1] is more than 100 µM; in test [2] it was more than 78.1 µM; in test [3], more than 100 µM; in test [4], more than 100 µM; in test [18], more than 74.5 µM; in test [5] it was more than 100 µM. Besides, the TGI in [6] was more than 100 µM; in test [7], more than 100 µM; in test [8], more than 100 µM; in [9], more than 65.1 µM; in test [10] it was more than 100 µM; in test [11], more than 68.1 µM. Further, the total growth inhibition concentration (TGI) in test [12] is more than 100 µM; in test [13], more than 100 µM; in [14], more than 90.6 µM; in test [15], more than 90.1 µM; in [16], more than 100 µM; in [17], more than 100 µM.

As for `Cc1cn(C2CC(O)C(Cn3nncc3Cn3cnc4c(N)ncnc43)O2)c(=O)[nH]c1=O` (stereo not drawn), the TGI in [1], in test [2], in test [3], in test [4], in test [18] and in test [5] was more than 100 µM each time. The total growth inhibition concentration (TGI) in [6], in [7], in test [8], in test [9], in [10] and in test [11] was more than 100 µM in each case. Also, the TGI in [12], in [13], in test [14], in test [15] and in test [16] was more than 100 µM in each case.
